According to patent US10111932B2, “Coagonists of glucagon-like peptide 1 receptor and neuropeptide Y2 receptor” (Syracuse University, priority 2015, dated 2018):
Entries after “also recorded” stand apart in the source; their conditions may differ. Ends that are not written are not given here.

Tests used:
Type in all cases: cell-based
[1] = molecular target: T1, GIPR (Homo sapiens, UniProt P48546); test: GIPR agonism, AKAR3 FRET in HEK293 cells stably transfected with GIPR; conditions: tested up to 1 μM
T1 construct: expressed in transfected cells; host or cells: HEK293
T1 sequence (P48546 22-466): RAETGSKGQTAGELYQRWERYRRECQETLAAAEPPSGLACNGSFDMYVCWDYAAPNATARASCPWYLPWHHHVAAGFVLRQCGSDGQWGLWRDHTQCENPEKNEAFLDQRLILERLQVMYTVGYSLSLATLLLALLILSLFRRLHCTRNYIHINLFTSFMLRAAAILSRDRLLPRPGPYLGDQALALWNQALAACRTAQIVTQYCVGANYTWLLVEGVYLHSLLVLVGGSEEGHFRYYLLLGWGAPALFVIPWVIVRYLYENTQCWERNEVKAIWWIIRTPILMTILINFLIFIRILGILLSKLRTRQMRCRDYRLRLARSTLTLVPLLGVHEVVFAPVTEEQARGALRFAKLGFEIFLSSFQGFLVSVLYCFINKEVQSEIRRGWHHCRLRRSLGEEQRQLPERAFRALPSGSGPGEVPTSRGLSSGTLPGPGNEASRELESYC
Experimental: (§1) The RLB series peptides were tested for function at receptors corresponding to the glucagon super family of receptors and NPY receptors. These receptors were transfected into either HEK293 cells or CHO cells. HEK 293 cells stably transfected with either GLP-1R or GIPR followed by an infection of adenovirus incorporating AKAR3 to indirectly follow cAMP production. CHO cells were transfected with NPY2R and a promiscuous g protein using FURA2 to follow calcium release.
Receptors in the glucagon receptor superfamily were tested based on the similarities of native peptide agonists.

[2] = molecular target: T2, GLP-1R (Homo sapiens, UniProt P43220); test: GLP-1R agonism, AKAR3 FRET assay in HEK-GLP-1R cells; conditions: for GLP-1R agonism screen: 300 nM, HEK-GLP-1R cells (FIG. 10)
T2 construct: expressed in transfected cells; host or cells: HEK293
Experimental: as §1

[3] = molecular target: T3, NPY2R (Homo sapiens, UniProt P49146); test: NPY2R agonism, FURA2 calcium release in transfected CHO cells
T3 construct: expressed in transfected cells; host or cells: CHO
T3 sequence (P49146 1-381): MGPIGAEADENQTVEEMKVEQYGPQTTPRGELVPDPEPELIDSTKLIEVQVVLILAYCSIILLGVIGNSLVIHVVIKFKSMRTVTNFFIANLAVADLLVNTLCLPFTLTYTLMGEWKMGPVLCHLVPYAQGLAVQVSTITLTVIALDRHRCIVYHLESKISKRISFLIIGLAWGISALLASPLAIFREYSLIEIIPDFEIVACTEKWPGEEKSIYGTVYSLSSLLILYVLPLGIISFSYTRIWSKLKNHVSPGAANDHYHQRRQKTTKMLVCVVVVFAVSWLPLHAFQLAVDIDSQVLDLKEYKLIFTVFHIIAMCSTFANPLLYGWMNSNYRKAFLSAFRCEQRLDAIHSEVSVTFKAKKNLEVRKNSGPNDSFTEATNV
Experimental: as §1

T2 sequence (P43220 24-463, species assumed): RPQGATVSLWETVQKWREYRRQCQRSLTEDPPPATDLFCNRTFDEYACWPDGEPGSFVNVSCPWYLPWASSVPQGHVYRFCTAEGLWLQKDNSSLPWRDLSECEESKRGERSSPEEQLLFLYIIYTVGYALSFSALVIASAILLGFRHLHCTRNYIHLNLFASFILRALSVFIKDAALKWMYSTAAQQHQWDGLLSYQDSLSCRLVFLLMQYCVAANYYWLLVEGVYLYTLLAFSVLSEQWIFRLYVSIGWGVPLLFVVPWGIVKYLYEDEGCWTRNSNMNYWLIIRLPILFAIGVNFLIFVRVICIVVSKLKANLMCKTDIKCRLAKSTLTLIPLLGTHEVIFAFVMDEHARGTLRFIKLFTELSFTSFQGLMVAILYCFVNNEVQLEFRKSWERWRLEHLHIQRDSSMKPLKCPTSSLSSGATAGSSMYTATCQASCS

For `CC[C@H](C)[C@H](NC(=O)[C@H](Cc1ccccc1)NC(=O)[C@H](CC(C)C)NC(=O)[C@H](CCCNC(=N)N)NC(=O)[C@@H](NC(=O)[C@H](C)NC(=O)[C@H](CCC(=O)O)NC(=O)[C@H](CCC(=O)O)NC(=O)[C@H](CCC(=O)O)NC(=O)[C@H](CCSC)NC(=O)[C@H](CCC(N)=O)NC(=O)[C@H](CCCCN)NC(=O)[C@H](CO)NC(=O)[C@H](CC(C)C)NC(=O)[C@H](CC(=O)O)NC(=O)[C@H](CO)NC(=O)[C@@H](NC(=O)[C@H](Cc1ccccc1)NC(=O)[C@@H](NC(=O)CNC(=O)[C@H](CCC(=O)O)NC(=O)CNC(=O)[C@@H](N)Cc1c[nH]cn1)[C@@H](C)O)[C@@H](C)O)C(C)C)C(=O)N[C@@H](CCC(=O)O)C(=O)N[C@@H](Cc1c[nH]c2ccccc12)C(=O)N[C@@H](CC(C)C)C(=O)N[C@@H](CCCNC(=N)N)C(=O)N[C@@H](Cc1c[nH]cn1)C(=O)N[C@@H](Cc1ccc(O)cc1)C(=O)N[C@@H](CC(C)C)C(=O)N[C@@H](CC(N)=O)C(=O)N[C@@H](CC(C)C)C(=O)N[C@H](C(=O)N[C@H](C(=O)N[C@@H](CCCNC(=N)N)C(=O)N[C@@H](CCC(N)=O)C(=O)N[C@@H](CCCNC(=N)N)C(=O)N[C@@H](Cc1ccc(O)cc1)C(N)=O)[C@@H](C)O)C(C)C` [Peptide 12], the GIPR agonism [1] was “no agonsim; also recorded: no function”, the GLP-1R agonism screen [2] was “have agonism” and the EC50 ([2]; dose response) was 0.253 ± 0.05 nM. The GLP-1R agonism screening ([2]; peptides at 100 nM (FIG. 3)) was “effective agonists”, the “Potency at the GLP-1R, comparative statement” value ([2]; relative to the other dual agonists) was “significant less potent” and the NPY2R agonism screen ([3]; 300 nM (FIG. 12)) was “full function”. For the same compound, the EC50 ([3]; dose response) was 59 nM.

“IKPEAPREDASPEEENQAYKEFIAYLNLVTRQRY-NH2 [Peptide 13]” was tested, and the GLP-1R agonism screen [2] was “no function”.
